Laboratory results taken from patent US20100190694A1, “Methods for identifying patients who will respond well to cancer treatment” (priority 2009, published 2010).
pIC50: −log10 of the molar value. Several values for one entry are separate records, joined by “and”; a condition that tells them apart may be missing. Identical values can stand only once. Like-named read-outs stand apart in the source and are kept apart here. Marks after values point to notes of the source that are not given here.

Experiments:
[1] = system: rapidly proliferating cells; assay: cell cycle arrest and apoptosis; format: cell-based
[2] = system: thymidylate synthase (TS); assay: TS mRNA by RTQ-PCR in PBMC; format: in vivo, human; details: for TS maximum percentage change versus baseline: one value per patient
Description: (§1) DLTs, i.e. grade ¾ non-hematologic toxicities and grade 4 neutropenia or thrombocytopenia, were determined in cycles 1 and 2. Safety was assessed by NCI CTC (v. 3) and efficacy by RECIST criteria. Expression of TS, DPD, and p21 mRNA was measured by RTQ-PCR in PBMC (20 patients at baseline, and pre-dosing, 6 and 24-hours post-dosing, on days 1 and 4 in cycle 1) and in tumor biopsies (8 patients at baseline and once on days 4 or 5 in cycle 1). Results were expressed as gene expression relative to actin (i.e. TS/Actin Relative Gene Expression, DPD/Actin Relative Gene Expression, and p21/Actin Relative Gene Expression).

[3] = system: dihydropyrimidine dehydrogenase (DPD); assay: DPD mRNA by RTQ-PCR in tumor biopsies; format: in vivo, human
Description: as §1

[4] = system: thymidylate synthase (TS); details: HCT116 colon cancer cells, in vitro; cited from earlier work
[5] = system: p21; assay: p21 mRNA by RTQ-PCR in tumor biopsies; format: in vivo, human; details: for patients with up-regulation of p21 in tumor tissue: Bel monotherapy, Bel 1000 mg/m^2/day
Description: as §1

[6] = system: TS, DPD, and p21 expression in PBMC; assay: '2 out of 3' TS/DPD/p21 expression pattern in PBMC versus clinical outcome; format: in vivo, human
From the text: Among the 20 patients where an attempt was made to analyze TS, DPD, and p21 in PBMC, 2 patients seemed to have a clearly favorable clinical outcome (patients 101-3 and 102-14 with treatment durations on Bel/FU of 8 and 14 cycles, respectively; see Tables 4 and 6), i.e. a 10% favorable outcome rate without selection.
If selection of patients for treatment with Bel/FU would have been done after an initial-dose of Bel and analyses of TS, DPD, and p21 expression in PBMC 6-hours post Bel dosing, the favorable outcome rate could have been increased to between 33% and 67% by selection of patients based on a “2 out of 3” positive expression pattern (positive assumed to be TS down-, DPD down-, and p21 up-regulation in comparison to a pre-treatment value).
Selection based on one single sample taken 6-hours post Bel dosing (Table A): 6 (30%; patients 101-3/5/6/7, 102-6/14) of the 20 patients have “2 out of 3” markers showing a favorable expression change after Bel dosing, and 2 (33%) of the 6 patients have clearly favorable clinical outcomes. Note, also patients 101-6 and 101-7 with a “2 out of 3” pattern, but not counted as having “clearly favorable clinical outcome” have longer than median treatment durations on Bel/FU (i.e. 4 cycles; see Table 4).
Selection based on mean of two samples taken 6-hours post Bel dosing (Table B): 3 (15%; patients 101-3, 102-6/14) of the 20 patients have “2 out of 3” markers showing a favorable expression change after Bel dosing, and 2 (67%) of the 3 patients have clearly favorable clinical outcomes.
as §1

[7] = system: tumour; assay: xenograft models, tumour growth; details: in vivo
[8] = set-up: species or system human; details: in vivo
Description: Cardiac safety was analyzed by extensive ECG monitoring (>3.000 ECG's assessed) in combination with PK assessments of Bel. Based on analyses by a central laboratory, the main findings (mean changes from baseline at the different dose-levels and for Bel alone and in combination with FU) were: • Heart rate, changes of −1 to +11 bpm, without outliers or any dose relationship. • PR duration, changes of −8 to +2 ms, without outliers or any dose relationship. • QRS duration, changes of −3 to +4 ms, without outliers or any dose relationship. • QTcF duration, changes of −4 to +18 ms, without any dose relationship. One outlier pat with a new QTcF value >500 ms was identified at dose-level 1000/750 (max post-infusion QTcF value 522 ms from pre-infusion value of 487 ms).
(§2) Phase I dose-escalation, multi-center study with the objectives to assess: • maximum tolerated dose and dose limiting toxicities (DLT) of Bel in combination with FU • impact of Bel on expression of TS, dihydropyrimidine dehydrogenase (DPD), and p21, in tumor and non-tumor surrogate tissue (peripheral blood mononuclear cells; PBMC) • preliminary anti-tumor activity of Bel in combination with FU • impact of Bel on ECG parameters • pharmacokinetics (PK) of Bel when given in combination with FU

[9] = Phase I study: pharmacokinetics of Bel; format: in vivo, human; details: for half-life: read-out: T1/2, group mean (±SD) (converted)
From the text: as §2
Treatment cycles of 21 days included Bel alone in cycle 1, and Bel in combination with FU in all subsequent cycles (FIG. 4). Treatment was to continue until significant treatment-related toxicity or progressive disease.

[10] = system: dihydropyrimidine dehydrogenase (DPD); assay: DPD mRNA by RTQ-PCR in PBMC; format: in vivo, human; details: for DPD maximum percentage change versus baseline: one value per patient
Description: as §1

[11] = system: p21; assay: p21 mRNA by RTQ-PCR in PBMC; format: in vivo, human; details: for P21 maximum percentage change versus baseline: one value per patient
Description: as §1

[12] = system: thymidylate synthase (TS); assay: TS mRNA by RTQ-PCR in tumor biopsies; format: in vivo, human; details: Bel monotherapy, Bel 1000 mg/m^2/day, patients with pre- and post-Bel samples
Description: as §1

[13] = system: diverse tumour cell lines; assay: proliferation of diverse tumour cell lines; format: cell-based; details: range over cell lines; read-out: IC50, blocks proliferation of diverse tumour cell lines
[14] = PXD 600, one value per patient, listed as PXD
[15] = PXD 600, one value per patient, listed as PXD, with FU dose 250
[16] = PXD 600, one value per patient, listed as PXD, with FU dose 1000
[17] = PXD 1000, one value per patient, listed as PXD
[18] = PXD 1000, one value per patient, listed as PXD, with FU dose 250
[19] = PXD 1000, one value per patient, listed as PXD, with FU dose 1000
[20] = cycle 1, Belinostat Dose 300 mg/m^2/day
[21] = cycle 1, Belinostat Dose 600 mg/m^2/day
[22] = cycle 1, Belinostat Dose 1000 mg/m^2/day
[23] = patient tumor samples, cycle 1 day 4 or 5, Bel 1000 mg/m^2/day, one value per patient, listed as belinostat
[24] = belinostat 1000 mg/m^2/day alone, Cycle 2 Day 1, n = 14
[25] = belinostat 1000 mg/m^2/day in combination with FU, Cycle 2 Day 5, n = 13
[26] = PXD 1000, one value per patient, listed as PXD, with FU dose 500

In the case of `O=C(/C=C/c1cccc(S(=O)(=O)Nc2ccccc2)c1)NO` [PXD-101], the “cell cycle arrest and apoptosis” value [1] was “causes cell cycle arrest and apoptosis”, the “6mean-TS, Change from baseline at 6 h based on mean of d1 + d4” value (shortened to “6mean-TS, Change from baseline”) ([2]; PXD 300, one value per patient) was 410% and the “D1-6: TS, Change from baseline at 6 h day 1” value (from here on “D1-6: TS, Change from baseline”) ([2]; PXD 300, one value per patient) was 486%. For the same compound, the “D1-6: TS, Change from baseline” value [2, 14] was 62% and −87% and 144%, the “6mean-TS, Change from baseline” value [2, 15] was 126% and 144% and the “6mean-TS, Change from baseline” value [2, 16] was −65%. The “D1-6: TS, Change from baseline” value [2, 17] was −51% and 63% and −21% and 88% and −14% and 274% and 238%, the “6mean-TS, Change from baseline” value [2, 18] was −51% and 54% and 286% and 169% and 182% and the “6mean-TS, Change from baseline” value [2, 19] was 51% and 142%. For the same compound, the “TS maximum percentage change versus baseline” value [2, 20] was 486%, the “TS maximum percentage change versus baseline” value [2, 21] was 190% and −87% * and 144% and the “TS maximum percentage change versus baseline” value [2, 22] was 238% and −51% * and 63% and 594% and 250% and 116% and 274% and −67% * and 214%. The “DPD expression change in tumor tissue” value ([3]; Bel monotherapy, Bel 1000 mg/m^2/day) was “minor changes”, the “DPD Change vs baseline” value [3, 23] was “≈” and the “expression of thymidylate synthase (TS)” value [4] was “reduce the expression”. For the same compound, the “patients with up-regulation of p21 in tumor tissue” value ([5]; listed as Bel) was “Three of 4”, the “patients with up-regulation of p21 in tumor tissue” value ([5]; listed as belinostat) was 3 of the 4 and the “p21 Change vs baseline” value [5, 23] was “≈”. The “patients with '3 of 3 correct' marker pattern” value ([6]; 6 h, mean of d1 + d4) was 2 pts, the “patients with '2 of 3 correct' marker pattern (down TS-down DPD-up p21)” value ([6]; 6 h, mean of d1 + d4, of 20 patients) was 3 pts and the “patients with '3 of 3 correct' marker pattern” value ([6]; 6 h day 1) was 2 pts. The “patients with '2 of 3 correct' marker pattern (down TS-down DPD-up p21)” value ([6]; 6 h day 1, of 20 patients) was 6 pts, the “tumour growth in xenograft models” value [7] was “slows tumour growth” and the “max post-infusion QTcF value of the one outlier pat” value ([8]; human) was 522 ms. The “effect on heart rate, AV conduction, cardiac depolarization, morphology or cardiac re-polarization” value [8] was “no clear signal of any clinically relevant effect”, the “CL, group mean (±SD)” value [9, 24] was 37,580 (10,893) ml/hr/m^2 and the “Vss, group mean (±SD)” value [9, 24] was 16,528 (4,918) ml/m^2. For the same compound, the “Vz, group mean (±SD)” value [9, 24] was 58,362 (26,136) ml/m^2, the “CL, group mean (±SD)” value [9, 25] was 30,141 (13,824) ml/hr/m^2 and the “Vss, group mean (±SD)” value [9, 25] was 13,538 (7,253) ml/m^2. For the same compound, the “Vz, group mean (±SD)” value [9, 25] was 53,316 (29,753) ml/m^2, the PK linearity ([9]; day 1 across all dose cohorts (n=22)) was “linear PK” and the half-life ([9]; human, in vivo, intravenous, 1000 mg/m2, belinostat 1000 mg/m^2/day alone, Cycle 2 Day 1, n = 14) was 1 h. For the same compound, the AUC(0-inf) ([9]; human, in vivo, intravenous, belinostat 1000 mg/m^2/day in combination with FU, Cycle 2 Day 5, n = 13, read-out: AUC0-∞, group mean (±SD)) was 33300 ng·h/mL, the AUC ([9]; human, in vivo, intravenous, belinostat 1000 mg/m^2/day in combination with FU, Cycle 2 Day 5, n = 13, read-out: AUCall, group mean (±SD)) was 33200 ng·h/mL and the Cmax ([9]; human, in vivo, intravenous, belinostat 1000 mg/m^2/day in combination with FU, Cycle 2 Day 5, n = 13, read-out: Cmax, group mean (±SD)) was 49500 ng/mL. The half-life ([9]; human, in vivo, intravenous, belinostat 1000 mg/m^2/day in combination with FU, Cycle 2 Day 5, n = 13) was 1.2 h, the “6mean-DPD, Change from baseline at 6 h based on mean of d1 + d4” value (“6mean-DPD, Change from baseline” for short) ([10]; PXD 300, one value per patient) was 131% and the “D1-6: DPD, Change from baseline at 6 h day 1” value (“D1-6: DPD, Change” for short) ([10]; PXD 300, one value per patient) was 136%. The “D1-6: DPD, Change” value [10, 14] was 30% and −87% and −56% and −13%, the “6mean-DPD, Change from baseline” value [10, 15] was −22% and −37% and −13% and the “6mean-DPD, Change from baseline” value [10, 16] was −59%. The “D1-6: DPD, Change” value [10, 17] was −55% and −57% and 78% and −62% and −28% and 373% and 14% and 6% and 160% and −20% and 547%, the “6mean-DPD, Change from baseline” value [10, 18] was −55% and 8% and 124% and −22% and 267% and 372% and the “6mean-DPD, Change from baseline” value [10, 26] was 278% and 56%. The “6mean-DPD, Change from baseline” value [10, 19] was 15% and 73% and −20%, the “DPD maximum percentage change versus baseline” value [10, 20] was 136% and the “DPD maximum percentage change versus baseline” value [10, 21] was −74% * and −87% * and −73% * and −13% *. The “DPD maximum percentage change versus baseline” value [10, 22] was 547% and 91% and 220% and 169% and −83% * and 563% and 373% and 98% and −60% * and 160% and −20% * and 62%, the “6mean-p21, Change from baseline at 6 h based on mean of d1 + d4” value (“6mean-p21, Change from baseline” below) ([11]; PXD 300, one value per patient) was 41% and the “D1-6: p21, Change from baseline at 6 h day 1” value (“D1-6: p21, Change” below) ([11]; PXD 300, one value per patient) was 35%. The “D1-6: p21, Change” value [11, 14] was −9% and 31% and −48%, the “6mean-p21, Change from baseline” value [11, 15] was −16% and −55% and the “6mean-p21, Change from baseline” value [11, 16] was 15%. The “D1-6: p21, Change” value [11, 17] was 272% and −54% and 115% and −25% and 16% and 43% and 21% and 13% and −11% and 74% and 68%, the “6mean-p21, Change from baseline” value [11, 18] was 272% and −55% and 155% and −17% and 44% and 32% and the “6mean-p21, Change from baseline” value [11, 26] was 21% and −25%. For the same compound, the “6mean-p21, Change from baseline” value [11, 19] was −35% and 23% and 74%, the “P21 maximum percentage change versus baseline” value [11, 20] was 48% * and the “P21 maximum percentage change versus baseline” value [11, 21] was 43% * and 88% * and −86%. The “P21 maximum percentage change versus baseline” value [11, 22] was 68% * and 972% * and −72% and 715% * and 62% * and 156% * and 43% * and −71% and −83% and −86% and 74% * and −47%, the “patients with TS down-regulated in tumor tissue” value ([12]; listed as Bel) was 4 of 4 and the “patients with TS down-regulated in tumor tissue” value ([12]; listed as belinostat) was “Four of 4”. The pIC50 [13] was 5.61 to 7.10.
